Reference: ChEMBL document CHEMBL5465560, “Selectivity Literature for EUbOPEN Chemogenomic Library” (2024)

Assays:
[1] = target: T1, Myotonin-protein kinase (Homo sapiens) (UniProt Q09013); assay: Selectivity interaction (KinomeScan (DiscoverX)) EUB0000607a DMPK; conditions: at 10 µM
T1 sequence (whole entry): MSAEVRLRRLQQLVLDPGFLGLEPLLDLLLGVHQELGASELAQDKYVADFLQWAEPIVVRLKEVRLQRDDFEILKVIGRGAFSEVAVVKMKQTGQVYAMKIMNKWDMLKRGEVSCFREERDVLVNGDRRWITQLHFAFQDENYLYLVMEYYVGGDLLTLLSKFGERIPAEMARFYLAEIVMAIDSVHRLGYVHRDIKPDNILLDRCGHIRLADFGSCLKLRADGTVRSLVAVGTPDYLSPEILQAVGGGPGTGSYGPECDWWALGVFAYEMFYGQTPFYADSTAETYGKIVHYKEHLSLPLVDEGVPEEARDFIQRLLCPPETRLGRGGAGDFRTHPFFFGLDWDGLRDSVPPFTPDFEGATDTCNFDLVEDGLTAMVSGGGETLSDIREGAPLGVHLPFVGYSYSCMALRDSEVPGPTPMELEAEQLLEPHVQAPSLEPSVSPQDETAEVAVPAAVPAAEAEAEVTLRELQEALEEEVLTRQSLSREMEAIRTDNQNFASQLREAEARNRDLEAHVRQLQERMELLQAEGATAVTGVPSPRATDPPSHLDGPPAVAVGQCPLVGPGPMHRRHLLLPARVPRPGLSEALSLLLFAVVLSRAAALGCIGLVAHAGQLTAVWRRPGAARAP

[2] = target: Serine/threonine-protein kinase WNK3 (Homo sapiens) (UniProt Q9BYP7); assay: Selectivity interaction (ActivX KiNativ screen (kinase selectivity in THP-1 cell lysates)) EUB0000639a WNK3; assay type: subcellular; conditions: lysate
[3] = target: T2, Serine/threonine-protein kinase 36 (Homo sapiens) (UniProt Q9NRP7); assay: Selectivity interaction (KinomeScan (DiscoverX)) EUB0000695a STK36; conditions: at 100 nM
T2 sequence (whole entry): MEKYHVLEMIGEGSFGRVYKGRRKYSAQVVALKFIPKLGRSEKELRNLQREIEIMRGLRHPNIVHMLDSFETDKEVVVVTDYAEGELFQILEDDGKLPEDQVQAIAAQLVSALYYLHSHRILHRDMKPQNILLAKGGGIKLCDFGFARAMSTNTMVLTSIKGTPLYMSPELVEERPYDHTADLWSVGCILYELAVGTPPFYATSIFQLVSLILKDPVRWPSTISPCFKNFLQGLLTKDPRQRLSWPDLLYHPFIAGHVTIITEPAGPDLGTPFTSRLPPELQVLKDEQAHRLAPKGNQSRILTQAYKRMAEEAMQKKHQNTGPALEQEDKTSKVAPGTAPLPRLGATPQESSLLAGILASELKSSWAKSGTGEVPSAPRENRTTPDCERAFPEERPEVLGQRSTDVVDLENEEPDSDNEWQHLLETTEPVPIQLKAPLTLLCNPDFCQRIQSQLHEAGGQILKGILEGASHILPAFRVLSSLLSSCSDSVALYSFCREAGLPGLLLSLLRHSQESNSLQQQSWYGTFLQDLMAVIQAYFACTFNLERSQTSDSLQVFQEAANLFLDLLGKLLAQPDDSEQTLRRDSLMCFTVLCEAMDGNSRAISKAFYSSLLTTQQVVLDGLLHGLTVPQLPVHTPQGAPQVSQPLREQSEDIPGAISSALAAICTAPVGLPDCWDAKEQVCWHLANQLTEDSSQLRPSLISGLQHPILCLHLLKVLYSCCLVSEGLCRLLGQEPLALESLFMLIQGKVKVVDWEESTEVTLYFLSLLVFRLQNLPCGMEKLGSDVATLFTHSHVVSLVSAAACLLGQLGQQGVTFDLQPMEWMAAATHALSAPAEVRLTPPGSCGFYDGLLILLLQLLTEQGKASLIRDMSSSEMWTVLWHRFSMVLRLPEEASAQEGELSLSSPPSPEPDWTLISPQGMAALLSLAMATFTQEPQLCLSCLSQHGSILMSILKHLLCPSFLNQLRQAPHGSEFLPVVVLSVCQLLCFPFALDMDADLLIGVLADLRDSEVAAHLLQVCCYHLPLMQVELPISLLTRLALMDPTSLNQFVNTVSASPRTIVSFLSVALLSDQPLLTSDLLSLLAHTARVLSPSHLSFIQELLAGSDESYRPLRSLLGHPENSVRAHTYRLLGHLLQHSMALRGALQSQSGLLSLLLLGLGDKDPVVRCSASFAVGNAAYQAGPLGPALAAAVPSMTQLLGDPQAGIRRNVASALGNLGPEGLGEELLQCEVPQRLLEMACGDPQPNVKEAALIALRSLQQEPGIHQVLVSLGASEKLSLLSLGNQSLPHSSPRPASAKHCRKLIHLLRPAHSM

[4] = target: T3, Aurora kinase A (Homo sapiens) (UniProt O14965); assay: Selectivity interaction (KinomeScan (DiscoverX)) EUB0000595a STK6; conditions: at 10 µM
T3 sequence (whole entry): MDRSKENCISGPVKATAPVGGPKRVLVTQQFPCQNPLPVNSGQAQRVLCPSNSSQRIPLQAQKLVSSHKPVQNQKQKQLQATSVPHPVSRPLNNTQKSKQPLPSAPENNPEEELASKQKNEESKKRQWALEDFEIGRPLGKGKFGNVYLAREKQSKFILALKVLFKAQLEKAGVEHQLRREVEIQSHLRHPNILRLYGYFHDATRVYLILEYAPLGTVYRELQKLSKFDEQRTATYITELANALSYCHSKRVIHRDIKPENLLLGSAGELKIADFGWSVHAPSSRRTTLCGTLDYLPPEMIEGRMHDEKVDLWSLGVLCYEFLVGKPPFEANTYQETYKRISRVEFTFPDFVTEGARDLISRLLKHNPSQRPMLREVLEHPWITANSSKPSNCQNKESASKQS

[5] = target: DNA (cytosine-5)-methyltransferase 3B (Homo sapiens) (UniProt Q9UBC3); conditions: at 10 µM
[6] = target: Tyrosine-protein kinase JAK1 (Homo sapiens, UniProt P23458); assay: Selectivity interaction (Kinase panel (KiNativ target engagement assay in Jurkat cells)) EUB0001635a JAK1; assay type: cell-based; conditions: Selectivity number of off-targets 0.0, Selectivity number of targets 233.0, Source Knowledge https://www.sciencedirect.com/science/article/pii/S2451945619300674?via%3Dihub, at 1 µM
[7] = target: Ribosomal protein S6 kinase alpha-4 (Homo sapiens) (UniProt O75676); conditions: at 10 µM
[8] = target: Rho-associated protein kinase 1 (Homo sapiens) (UniProt Q13464); assay: Selectivity interaction (KinomeScan (DiscoverX)) EUB0000618a ROCK1; conditions: at 10 µM
[9] = system: Epidermal growth factor receptor (Homo sapiens), P00533 [L858R]; assay: (§1) Selectivity interaction (KinomeScan (DiscoverX)) EUB0001619a EGFR; conditions: at 1 µM
[10] = target: Epidermal growth factor receptor (Homo sapiens, UniProt P00533); assay: as §1; conditions: at 1 µM
Chain of Epidermal growth factor receptor (P00533 whole entry): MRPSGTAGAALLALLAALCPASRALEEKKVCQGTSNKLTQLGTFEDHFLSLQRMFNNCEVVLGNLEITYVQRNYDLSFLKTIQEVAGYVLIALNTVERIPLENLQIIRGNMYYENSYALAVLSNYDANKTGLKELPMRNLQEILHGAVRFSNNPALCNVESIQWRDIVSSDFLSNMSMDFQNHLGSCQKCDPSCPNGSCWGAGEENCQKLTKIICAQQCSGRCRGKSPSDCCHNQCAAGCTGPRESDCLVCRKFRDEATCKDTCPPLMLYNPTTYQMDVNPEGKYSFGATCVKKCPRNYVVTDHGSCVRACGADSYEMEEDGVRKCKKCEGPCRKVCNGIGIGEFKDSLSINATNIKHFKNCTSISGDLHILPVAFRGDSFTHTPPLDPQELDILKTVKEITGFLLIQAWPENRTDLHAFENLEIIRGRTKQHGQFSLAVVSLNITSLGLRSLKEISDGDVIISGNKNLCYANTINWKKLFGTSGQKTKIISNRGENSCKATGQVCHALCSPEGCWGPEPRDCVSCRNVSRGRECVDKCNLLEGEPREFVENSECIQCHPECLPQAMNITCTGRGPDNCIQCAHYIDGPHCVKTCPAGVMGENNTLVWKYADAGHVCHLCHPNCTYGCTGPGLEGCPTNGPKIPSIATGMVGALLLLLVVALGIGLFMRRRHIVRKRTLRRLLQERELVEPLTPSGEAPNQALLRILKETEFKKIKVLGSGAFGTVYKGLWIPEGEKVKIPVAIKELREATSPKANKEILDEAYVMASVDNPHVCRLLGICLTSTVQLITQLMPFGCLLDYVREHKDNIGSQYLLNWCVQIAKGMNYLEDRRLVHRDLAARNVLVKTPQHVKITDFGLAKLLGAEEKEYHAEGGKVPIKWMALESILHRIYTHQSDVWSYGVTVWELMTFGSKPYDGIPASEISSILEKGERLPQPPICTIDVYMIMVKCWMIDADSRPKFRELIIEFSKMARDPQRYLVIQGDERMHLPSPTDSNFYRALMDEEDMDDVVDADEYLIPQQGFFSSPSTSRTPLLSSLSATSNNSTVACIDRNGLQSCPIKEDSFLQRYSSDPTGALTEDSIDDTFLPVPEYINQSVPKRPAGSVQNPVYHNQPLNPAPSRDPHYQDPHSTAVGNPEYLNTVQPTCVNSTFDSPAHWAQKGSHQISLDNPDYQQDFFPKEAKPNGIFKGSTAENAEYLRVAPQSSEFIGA

Chain of Serine/threonine-protein kinase WNK3 (Homo sapiens) (Q9BYP7 whole entry): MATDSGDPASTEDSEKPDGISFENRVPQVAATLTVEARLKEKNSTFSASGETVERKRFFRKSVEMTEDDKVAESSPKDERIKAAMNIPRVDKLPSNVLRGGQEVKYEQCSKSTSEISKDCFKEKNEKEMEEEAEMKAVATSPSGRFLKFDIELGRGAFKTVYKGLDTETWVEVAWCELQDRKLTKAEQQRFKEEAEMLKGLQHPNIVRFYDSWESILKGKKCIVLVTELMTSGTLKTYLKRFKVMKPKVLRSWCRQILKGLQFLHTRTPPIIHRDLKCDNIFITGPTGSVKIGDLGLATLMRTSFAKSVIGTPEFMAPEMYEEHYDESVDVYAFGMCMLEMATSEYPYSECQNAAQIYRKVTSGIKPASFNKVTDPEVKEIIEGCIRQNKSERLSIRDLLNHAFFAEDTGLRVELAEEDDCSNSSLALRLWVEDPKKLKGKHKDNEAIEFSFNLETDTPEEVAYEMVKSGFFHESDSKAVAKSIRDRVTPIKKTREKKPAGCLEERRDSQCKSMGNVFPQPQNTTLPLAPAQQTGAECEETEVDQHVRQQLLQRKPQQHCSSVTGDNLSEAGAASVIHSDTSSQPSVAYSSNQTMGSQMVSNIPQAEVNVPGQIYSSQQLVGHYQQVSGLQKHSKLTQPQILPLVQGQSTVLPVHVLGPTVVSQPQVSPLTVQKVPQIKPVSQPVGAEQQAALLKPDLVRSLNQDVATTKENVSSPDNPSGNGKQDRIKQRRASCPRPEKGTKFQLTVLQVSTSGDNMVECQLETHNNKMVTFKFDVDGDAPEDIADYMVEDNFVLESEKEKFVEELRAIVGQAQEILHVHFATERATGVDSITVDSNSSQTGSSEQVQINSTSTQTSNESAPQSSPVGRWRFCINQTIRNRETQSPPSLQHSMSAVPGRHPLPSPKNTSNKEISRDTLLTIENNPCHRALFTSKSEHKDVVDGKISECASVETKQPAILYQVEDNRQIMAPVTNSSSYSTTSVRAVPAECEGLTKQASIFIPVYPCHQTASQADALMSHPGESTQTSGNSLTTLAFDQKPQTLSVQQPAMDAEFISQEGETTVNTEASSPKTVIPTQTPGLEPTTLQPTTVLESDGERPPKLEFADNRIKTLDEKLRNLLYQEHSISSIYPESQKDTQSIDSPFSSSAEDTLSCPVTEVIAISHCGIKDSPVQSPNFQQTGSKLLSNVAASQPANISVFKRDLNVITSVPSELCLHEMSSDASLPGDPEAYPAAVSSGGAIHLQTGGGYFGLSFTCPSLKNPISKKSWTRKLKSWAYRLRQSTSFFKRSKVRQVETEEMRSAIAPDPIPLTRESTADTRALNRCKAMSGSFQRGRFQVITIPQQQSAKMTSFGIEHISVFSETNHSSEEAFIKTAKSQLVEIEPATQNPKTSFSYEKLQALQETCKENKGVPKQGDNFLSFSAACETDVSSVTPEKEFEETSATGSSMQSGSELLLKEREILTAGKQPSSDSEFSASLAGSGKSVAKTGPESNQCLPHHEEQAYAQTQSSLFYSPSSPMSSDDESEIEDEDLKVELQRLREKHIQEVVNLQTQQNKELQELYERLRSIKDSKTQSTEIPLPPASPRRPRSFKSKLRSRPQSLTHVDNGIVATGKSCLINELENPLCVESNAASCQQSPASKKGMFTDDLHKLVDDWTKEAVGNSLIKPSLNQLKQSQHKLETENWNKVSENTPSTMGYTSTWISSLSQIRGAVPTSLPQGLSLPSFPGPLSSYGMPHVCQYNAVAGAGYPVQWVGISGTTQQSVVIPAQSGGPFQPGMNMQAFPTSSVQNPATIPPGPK
Chain of Ribosomal protein S6 kinase alpha-4 (Homo sapiens) (O75676 whole entry, looked up): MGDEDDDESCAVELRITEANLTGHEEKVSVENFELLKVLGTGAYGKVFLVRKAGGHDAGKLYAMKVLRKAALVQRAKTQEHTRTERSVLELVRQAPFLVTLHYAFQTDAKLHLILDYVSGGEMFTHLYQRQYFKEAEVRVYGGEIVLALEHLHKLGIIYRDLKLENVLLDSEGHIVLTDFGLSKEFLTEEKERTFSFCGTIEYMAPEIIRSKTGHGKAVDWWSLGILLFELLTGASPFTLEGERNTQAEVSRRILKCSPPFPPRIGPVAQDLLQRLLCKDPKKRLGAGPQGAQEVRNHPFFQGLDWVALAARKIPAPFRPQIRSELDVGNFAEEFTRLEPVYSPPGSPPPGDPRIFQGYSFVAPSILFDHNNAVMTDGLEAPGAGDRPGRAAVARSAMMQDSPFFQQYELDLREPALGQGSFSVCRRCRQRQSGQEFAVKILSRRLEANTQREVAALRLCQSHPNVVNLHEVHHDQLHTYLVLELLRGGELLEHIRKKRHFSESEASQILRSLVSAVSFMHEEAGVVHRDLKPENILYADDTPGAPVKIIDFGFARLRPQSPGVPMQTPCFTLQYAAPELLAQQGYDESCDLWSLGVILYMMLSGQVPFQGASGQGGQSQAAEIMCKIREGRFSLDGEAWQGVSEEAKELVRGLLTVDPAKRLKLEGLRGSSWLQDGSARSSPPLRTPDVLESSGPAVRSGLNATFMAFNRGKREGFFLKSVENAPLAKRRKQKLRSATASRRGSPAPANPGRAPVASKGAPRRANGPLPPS
Chain of Epidermal growth factor receptor (Homo sapiens), P00533 [L858R] (P00533 whole entry L858R): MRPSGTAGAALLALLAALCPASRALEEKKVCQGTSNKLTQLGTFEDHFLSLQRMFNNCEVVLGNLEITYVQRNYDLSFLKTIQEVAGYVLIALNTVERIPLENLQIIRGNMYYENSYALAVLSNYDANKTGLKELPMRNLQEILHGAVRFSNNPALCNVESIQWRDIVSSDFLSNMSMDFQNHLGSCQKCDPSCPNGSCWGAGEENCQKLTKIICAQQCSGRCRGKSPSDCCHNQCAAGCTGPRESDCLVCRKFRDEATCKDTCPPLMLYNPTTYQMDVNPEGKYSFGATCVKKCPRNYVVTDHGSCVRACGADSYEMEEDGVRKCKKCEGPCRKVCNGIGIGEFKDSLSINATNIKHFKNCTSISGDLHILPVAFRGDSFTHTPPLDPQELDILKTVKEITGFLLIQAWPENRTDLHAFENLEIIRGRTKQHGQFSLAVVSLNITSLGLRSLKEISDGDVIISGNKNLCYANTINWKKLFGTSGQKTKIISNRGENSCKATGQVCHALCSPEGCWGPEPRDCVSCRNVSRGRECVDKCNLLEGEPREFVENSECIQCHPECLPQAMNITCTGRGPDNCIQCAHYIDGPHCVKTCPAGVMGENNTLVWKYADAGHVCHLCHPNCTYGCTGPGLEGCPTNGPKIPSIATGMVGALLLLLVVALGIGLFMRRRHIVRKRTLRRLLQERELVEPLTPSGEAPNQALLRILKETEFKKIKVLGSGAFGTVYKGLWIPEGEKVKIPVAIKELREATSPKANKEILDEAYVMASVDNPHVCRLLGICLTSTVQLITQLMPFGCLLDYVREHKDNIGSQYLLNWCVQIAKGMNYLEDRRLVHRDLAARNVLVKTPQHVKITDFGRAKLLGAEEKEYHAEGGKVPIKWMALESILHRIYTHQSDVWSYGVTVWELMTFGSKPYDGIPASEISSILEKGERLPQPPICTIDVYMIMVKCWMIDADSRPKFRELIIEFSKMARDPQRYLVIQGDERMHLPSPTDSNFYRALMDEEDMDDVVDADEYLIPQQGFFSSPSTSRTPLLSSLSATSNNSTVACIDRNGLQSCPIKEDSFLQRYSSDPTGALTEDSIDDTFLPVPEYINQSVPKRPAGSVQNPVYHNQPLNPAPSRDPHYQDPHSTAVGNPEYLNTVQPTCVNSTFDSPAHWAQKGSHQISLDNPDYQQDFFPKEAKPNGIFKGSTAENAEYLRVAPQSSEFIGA

For `CNC(=O)Nc1ccc(-c2nc(N3CC4CCC(C3)O4)c3cnn(C4CCC5(CC4)OCCO5)c3n2)cc1`, which % of control [1] is on record?
Its % of control is 83%.

With `CC[C@@H]1[C@H](F)C(=O)N[C@@H]1COc1nccc2cc(C(N)=O)c(OC)cc12` [ZIMLOVISERTIB] as the compound, how does the % of inhibition ([2]; at 0.01 µM) read?
Its % of inhibition is 3.3%.

What about the % of inhibition ([2]; at 0.04 µM) of the same compound?
The % of inhibition was -7.4%.

And the % of inhibition ([2]; at 0.2 µM)?
The % of inhibition was -12%.

And the % of inhibition ([2]; at 1 µM)?
The % of inhibition was -7.7%.

What about the % of inhibition ([2]; at 5 µM) of the same compound?
Its % of inhibition is -14.5%.

For `Cc1cc(F)c(C(=O)Nc2cccc(-c3nncn3C(C)C)n2)cc1-n1cnc(C2CC2)c1`, which % of control [3] is on record?
Its % of control is 100%.

How did the % of control [4] turn out when `COCC(=O)NC/C=C/c1ccc2ncnc(Nc3ccc(Oc4ccc(C)nc4)c(C)c3)c2c1` [CP-724714] was run?
The % of control was 100%.

With `CNCCN1CCC(c2cc(CN(C)C(=O)c3cccc(Oc4ccccc4)c3)ccn2)CC1` as the compound, how does the % activity [5] read?
Its % activity is greater than 90%.

Which % of engagement [6] does the source give for `C=CC(=O)Nc1ccc(C(=O)Nc2[nH]nc3c2CN(C(=O)N[C@H](CN(C)C)c2ccccc2)C3(C)C)cc1` here?
Its % of engagement is 7.9%.

`Cc1cc([C@@H](C)Nc2ccccc2C(=O)O)c2nc(N3CCOCC3)cc(=O)n2c1` [AZD-6482] was tested. Which % of control [7] did it give?
Its % of control is 100%.

How did the % of control [8] turn out when `O[C@H]1CC[C@H](Nc2ncc3nc(Nc4c(F)cc(F)cc4F)n([C@H]4CCOC4)c3n2)CC1` was run?
The % of control was 91%.

Which % of control [9] does the source give for `N#Cc1cccc(-c2c[nH]c3ncnc(N4CCOCC4)c23)c1` here?
Its % of control is 78%.

And the % of control [10]?
The % of control was 100%.
